For this assay, the target named is T1, gamma-secretase (Homo sapiens, UniProt P49768).
T1 construct: a partially purified extract of IMR-32 cell membranes as the gamma-secretase enzyme preparation; endogenous in cells; host or cells: IMR-32 cell membranes, partially purified extract
In words: Gamma-secretase APP enzyme assay (cleavage of MBP-C125swe substrate, sandwich ELISA). The settings on record: partially purified extract of IMR-32 cell membranes as enzyme, 2 h at 37° C, ELISA detection of cleavage product, read-out: γAPP. Type of assay: biochemical. The text has this:
The gamma-secretase APP enzyme assay was designed to measure the specific proteolytic cleavage of an APP substrate (MBP-C125 Swe fusion protein) at the […] site. The assay used a partially purified extract of IMR-32 cell membranes as the gamma-secretase enzyme preparation and a recombinant fusion protein containing the C-terminal 125 amino acids of the Swedish variant of the APP (MBP-C125swe) as the substrate. This assay involved two steps beginning with the enzymatic reaction generating a cleavage product that was captured with an immobilized antibody specific for the neo-epitope […] site. The captured cleavage product was then detected in a sandwich ELISA assay with a biotinylated reporter antibody that is specific to Aβ (17-28). Streptavidin-linked alkaline phosphatase was then added that would generate a fluorescent signal proportional to the amount of cleavage product. This assay was used to discover small molecule inhibitors of gamma-secretase. Briefly, a 149 mg/ml solution of […] detergent was made with water at 42° C. and then rotated for 30 minutes at the same temperature. […] Louis, Mo.) to a concentration of 8 mg/ml. This solution containing BigCHAPS and lipid at 8 mg/ml is then diluted to 0.53 mg/ml lipid with a pre-warmed solution of Hepes and sodium chloride. This final solution containing Hepes buffer, sodium chloride, BigCHAPS detergent and lipid is used to create working solutions of both gamma-secretase (25 Units) and the MBP-C125 substrate (0.05 mg/ml). Gamma-secretase was then added to a 96-well micro-titre plate and then incubated with various concentrations of inhibitor for 30 minutes at 37° C. MBP-C125 substrate was then added to initiate the reaction that would run for two hours at 37° C. The reaction was quenched with the addition of SDS to a final concentration of 0.1% and then 100 μl of the reaction mixture was transferred to a capture ELISA plate and incubated overnight at 4° C. Detection of the cleavage product was performed using a standard sandwich ELISA assay and quantified using a six point standard curve.

This is an account of results in patent US20110178119A1, “Bridged N-Bicyclic Sulfonamido Inhibitors of Gamma Secretase” (ELAN PHARMACEUTICALS, INC., priority 2005, published 2011).

On to `O=S(=O)(c1ccc(Cl)s1)N1C2CCCC1CCC2` [9-(5-chlorothiophen-2-ylsulfonyl)-9-azabicyclo[3.3.1]nonane], for which the IC50 is 2000 to 5000 nM. In the case of `O=S(=O)(c1ccc(Cl)cc1)N1C2CCCC1CC(=NO)C2` [9-(4-chlorophenylsulfonyl)-9-azabicyclo[3.3.1]nonan-3-one oxime], the IC50 lay within 2000 to 5000 nM. For the compound `O=S(=O)(c1ccc(Cl)cc1)N1C2CCCC1CCC2` [9-(4-chlorophenylsulfonyl)-9-azabicyclo[3.3.1]nonane], the IC50 fell in the range of 1000 to 2500 nM.

For the compound `CS(=O)(=O)OC1CC2CCCC(C1)N2S(=O)(=O)c1ccc(Cl)cc1` (stereo not shown) [Methanesulfonic acid 9-(4-chloro-benzenesulfonyl)-9-aza-bicyclo[3.3.1]non-3-yl ester], the IC50 was in the range of 1000 to 2500 nM. As for `O=S(=O)(c1ccc(Br)cc1)N1C2CCCC1CC2` [8-(4-bromophenylsulfonyl)-8-azabicyclo[3.2.1]octane], the IC50 is 2000 to 5000 nM. With `C=C1CC2CCCC(C1)N2S(=O)(=O)c1ccc(Cl)cc1` [9-(4-chlorophenylsulfonyl)-3-methylene-9-azabicyclo[3.3.1]nonane], the IC50 is less than 1000 nM. Take `O=S(=O)(c1ccc(Cl)cc1)N1C2CCCC1CC2` [8-(4-chlorophenylsulfonyl)-8-azabicyclo[3.2.1]octane]: the IC50 was in the range of 2000 to 5000 nM. Regarding `O=C1NCC2CCCC1N2S(=O)(=O)c1ccc(Cl)cc1` (stereo not shown) [9-(4-chlorophenylsulfonyl)-3,9-diazabicyclo[3.3.1]nonan-2-one], the IC50 lay within 2000 to 5000 nM.

For the compound `O=S(=O)(c1ccc(Br)cc1)N1C2CCCC1CCC2` [9-(4-bromophenylsulfonyl)-9-azabicyclo[3.3.1]nonane], the IC50 lay within 1000 to 2500 nM.

For `O=S(=O)(c1ccc(Cl)cc1)N1C2CCCC1CSC2` [9-(4-chlorophenylsulfonyl)-3-thia-9-azabicyclo[3.3.1]nonane], the IC50 was less than 1000 nM. Turning to `O=C1NC(=O)C2CCCC1N2S(=O)(=O)c1ccc(Cl)cc1` [9-[(4-chlorophenyl)sulfonyl]-3,9-diazabicyclo[3.3.1]nonane-2,4-dione], the IC50 was less than 1000 nM. As for `O=S(=O)(c1ccc(C(F)(F)F)cc1)N1C2CCCC1CCC2` [9-(4-(trifluoromethyl)phenylsulfonyl)-9-azabicyclo[3.3.1]nonane], the IC50 lay in the range of 2000 to 5000 nM. `CN(C(=O)OC(C)(C)C)C1CC2CCCC(C1)N2S(=O)(=O)c1ccc(Cl)cc1` (stereo not shown) [[9-(4-Chloro-benzenesulfonyl)-9-aza-bicyclo[3.3.1]non-3-yl]-methyl-carbamic acid tert-butyl ester]: the IC50 was less than 1000 nM. With `O=S(=O)(c1ccc(Br)s1)N1C2CCCC1CCC2` [9-(5-bromothiophen-2-ylsulfonyl)-9-azabicyclo[3.3.1]nonane], the IC50 fell in the range of 2000 to 5000 nM. As for `O=S(=O)(c1ccc(Cl)cc1)N1C2CCCC1COC2` [9-(4-chlorophenylsulfonyl)-3-oxa-9-azabicyclo[3.3.1]nonane], the IC50 is 2000 to 5000 nM.

`O=C1CC2CCCC(C1)N2S(=O)(=O)c1ccc(Cl)cc1` [9-(4-chlorophenylsulfonyl)-9-azabicyclo[3.3.1]nonan-3-one]: the IC50 was less than 1000 nM. On to `O=S(=O)(c1ccc(Cl)cc1)N1C2CCCC1CN(c1ccccc1)C2` [9-(4-chlorophenylsulfonyl)-3-phenyl-3,9-diazabicyclo[3.3.1]nonane], for which the IC50 was 1000 to 2500 nM. Take `O=S(=O)(c1ccc(Br)c(F)c1)N1C2CCCC1CCC2` [9-(4-bromo-3-fluorophenylsulfonyl)-9-azabicyclo[3.3.1]nonane]: the IC50 lay within 2000 to 5000 nM. `O=S(=O)(c1ccc(Cl)cc1)N1C2CCCC1CC(O)C2` (stereo not shown) [9-(4-chlorophenylsulfonyl)-9-azabicyclo[3.3.1]nonan-3-ol]: the IC50 fell in the range of 2000 to 5000 nM.
